Measured values as given in ChEMBL document CHEMBL1143662 (Bioorg Med Chem, 2007).

Key:
[1] = molecular target: T1, Melatonin receptor type 1B (Homo sapiens) (UniProt P49286); assay: Intrinsic activity at human cloned MT2 receptor expressed in […] cells by [35S]GTP-gamma-S binding assay relative to melatonin; assay type: functional, cell-based
T1 sequence (whole entry): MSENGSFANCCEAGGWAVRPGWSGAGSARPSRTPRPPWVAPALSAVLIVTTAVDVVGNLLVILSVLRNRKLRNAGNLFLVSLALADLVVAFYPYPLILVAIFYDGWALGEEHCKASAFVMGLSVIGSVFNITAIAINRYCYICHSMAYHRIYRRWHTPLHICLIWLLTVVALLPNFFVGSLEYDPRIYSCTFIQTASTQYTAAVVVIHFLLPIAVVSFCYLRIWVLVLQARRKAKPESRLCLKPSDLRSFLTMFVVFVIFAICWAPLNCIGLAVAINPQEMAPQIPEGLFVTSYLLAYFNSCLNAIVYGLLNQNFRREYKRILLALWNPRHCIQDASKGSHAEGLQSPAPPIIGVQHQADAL

[2] = molecular target: T2, Melatonin receptor type 1B (Homo sapiens, UniProt P49286); assay: Displacement of 2-[125I]iodomelatonin from human cloned MT2 receptor expressed in […] cells; assay type: cell-based
T2 sequence (P49286 whole entry): T1 sequence (whole entry)

[3] = molecular target: T3, Melatonin receptor type 1A (Homo sapiens, UniProt P48039); assay: Intrinsic activity at human cloned MT1 receptor expressed in […] cells by [35S]GTP-gamma-S binding assay relative to melatonin; assay type: functional, cell-based
[4] = molecular target: T3, Melatonin receptor type 1A; assay: Displacement of 2-[125I]iodomelatonin from human cloned MT1 receptor expressed in […] cells; assay type: cell-based

T3 sequence (P48039 whole entry): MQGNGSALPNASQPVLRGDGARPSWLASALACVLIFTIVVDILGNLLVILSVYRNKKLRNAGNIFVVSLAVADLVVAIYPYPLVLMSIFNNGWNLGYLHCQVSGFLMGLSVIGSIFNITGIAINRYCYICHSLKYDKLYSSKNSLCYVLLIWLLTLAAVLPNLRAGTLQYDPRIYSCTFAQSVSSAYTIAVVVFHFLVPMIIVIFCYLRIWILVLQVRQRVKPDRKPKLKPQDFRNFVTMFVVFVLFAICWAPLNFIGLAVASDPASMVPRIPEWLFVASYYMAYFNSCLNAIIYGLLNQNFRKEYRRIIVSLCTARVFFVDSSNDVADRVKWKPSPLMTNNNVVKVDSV

Row | SMILES | Intrinsic activity [1] | Ki [2] | Intrinsic activity [3] | Ki [4]
1 | COc1ccc2[nH]c(C(=O)OCCCCCCCCCOC(=O)c3ccccc3)c(CCNC(C)=O)c2c1 | 0.38 | 20 nM | 0.75 | 83 nM
2 | COc1ccc2[nH]cc(CCNC(=O)CCCCCC(=O)NCCc3c[nH]c4ccc(OC)cc34)c2c1 | 0.26 | 7290 nM | 0.35 | 6470 nM
3 | CCCCCOC(=O)c1[nH]c2ccc(OC)cc2c1CCNC(C)=O | 0.23 | 4.8 nM | 0.06 | 70.1 nM
4 | COc1ccc2[nH]c(C(=O)OCCCOC(=O)c3[nH]c4ccc(OC)cc4c3CCNC(C)=O)c(CCNC(C)=O)c2c1 | 0.8 | 14.3 nM | 0.77 | 9.5 nM
5 | COc1ccc2[nH]c(C(=O)OCCCCCCCCOC(=O)c3[nH]c4ccc(OC)cc4c3CCNC(C)=O)c(CCNC(C)=O)c2c1 | 0.9 | 7.92 nM | 1 | 7.91 nM
6 | COc1ccc2[nH]c(C(=O)OCCCCCCCCCCOC(=O)c3[nH]c4ccc(OC)cc4c3CCNC(C)=O)c(CCNC(C)=O)c2c1 | 0.65 | 15.4 nM | 0.79 | 24.2 nM
7 | COc1ccc2[nH]cc(CCNC(=O)CCCCCCCCC(=O)NCCc3c[nH]c4ccc(OC)cc34)c2c1 | 0.79 | 573 nM | 0.81 | 387 nM
8 | COc1ccc2[nH]c(C(=O)OCCCCCOC(=O)c3[nH]c4ccc(OC)cc4c3CCNC(C)=O)c(CCNC(C)=O)c2c1 | 0.93 | 62.4 nM | 1 | 20.1 nM
9 | COc1ccc2[nH]c(C(=O)OCCCCCCCCCCCCOC(=O)c3[nH]c4ccc(OC)cc4c3CCNC(C)=O)c(CCNC(C)=O)c2c1 | 0.64 | 44 nM | 0.72 | 25.4 nM
10 | COc1ccc2[nH]c(C(=O)OCCCCCCCCCOC(=O)c3[nH]c4ccc(OC)cc4c3CCNC(C)=O)c(CCNC(C)=O)c2c1 | -0.17 | 7.75 nM | 0.33 | 59.8 nM
11 | COc1ccc2[nH]c(C(=O)OCCCCCCCOC(=O)c3[nH]c4ccc(OC)cc4c3CCNC(C)=O)c(CCNC(C)=O)c2c1 | 0.08 | 65 nM | 0.35 | 215 nM
